According to patent US4232035A, “Carbamate pesticidal compounds compositions and methods of use” (priority 1975, dated 1980):

Experiments:
Type in all cases: in vivo
[1] = tested on: two-spotted mite (Tetranychus urticae Koch); test: Mite Foliage Spray Test; set-up: key: A: excellent control; B: partial control; C: no control; conditions: 500 parts per million foliage spray; six days
Protocol: (§1) Suspensions of the test compounds were prepared by dissolving one gram of compound in 50 milliliters of acetone in which had been dissolved 0.1 gram (10 percent of the weight of compound) of an alkylphenoxy polyethoxyethanol surfactant, as an emulsifying or dispersing agent. The resulting solution was mixed into 150 milliliters of water to give roughly 200 milliliters of a suspension containing the compound in finely divided form. The thus-prepared stock suspension contained 0.5 percent by weight of compound. The test concentrations in parts per million by weight employed in the tests described hereinbelow were obtained by appropriate dilutions of the stock suspension with water. The test procedures were as follows:
Adults and nymphal stages of the two-spotted mite (Tetranychus urticae Koch), reared on Tendergreen bean plants at 80±5 percent relative humidity, were the test organisms. Infested leaves from a stock culture were placed on the primary leaves of two bean plants six to eight inches in height, growing in a two-and-a-half inch clay pot. 150-200 Mites, a sufficient number for testing, transferred from the excised leaves to the fresh plants in a period of twenty four hours. Following the twenty four hour transfer period, the excised leaves were removed from the infested plants. The test compounds were formulated by diluting the stock suspension with water to give a suspension containing 500 parts of test compound per million parts of final formulation. The potted plants (one pot per compound) were placed on a revolving turntable and sprayed with 100-110 milliliters of test compound formulation by use of a DeVilbiss spray gun set at 40 psig. air pressure. This application, which lasted 25 seconds, was sufficient to wet the plants to run-off. As a control, 100-110 milliliters of a water solution containing acetone and emulsifier in the same concentrations as the test compound formulation, but containing no test compound, were also sprayed on infested plants. The sprayed plants were held at 80±5 percent relative humidity for six days, after which a mortality count of motile forms was made. Microscopic examination for motile forms was made on the leaves of the test plants. Any individual which was capable of locomotion upon prodding was considered living.

[2] = tested on: bean aphid (Aphis fabae Scop.); test: Bean Aphid Foliage Spray Test; set-up: key: A: excellent control; B: partial control; C: no control; conditions: 500 parts per million foliage spray; 24 hour holding period
Protocol: as §1
Adults and nymphal stages of the bean aphid (Aphis fabae Scop.) reared on potted dwarf nasturtium plants at 65°-70° F. and 50-70 percent relative humidity, constituted the test insects. For testing purposes, the number of aphids per pot was standardized to 100-150 by trimming plants containing excess aphids.
The test compounds were formulated by diluting the stock suspension with water to give a suspension containing 500 parts of test compound per million parts of final formulation.
The potted plants (one pot per compound tested) infested with 100-150 aphids, were placed on a revolving turntable and sprayed with 100-110 milliliters of test compound formulation by use of a DeVilbiss spray gun set at 40 psig. air pressure. This application, which lasted 25 seconds, was sufficient to wet the plants to run-off. As a control, 100-110 milliliters of a water-acetone-emulsifier solution containing no test compound were also sprayed on infested plants. After spraying, the pots were placed on their sides on a sheet of white standard mimeograph paper which had been previously ruled to facilitate counting. Temperature and humidity in the test room during the 24 hour holding period were 65°-70° F. and 50-70 percent, respectively. Aphids which fell onto the paper and were unable to remain standing after being uprighted were considered dead. Aphids remaining on the plants were observed closely for movement and those which were unable to move the length of the body upon stimulation by prodding were considered dead. Percent mortality was recorded for various concentration levels.

[3] = tested on: southern armyworm (Prodenia eridania, (Cram.)); test: Southern Armyworm Leaf Spray Test; set-up: key: A: excellent control; B: partial control; C: no control; conditions: 500 parts per million leaf spray; three days
Protocol: as §1
Larvae of the southern armyworm (Prodenia eridania, (Cram.)), reared on Tendergreen bean plants at a temperature of 80°±5° F. and a relative humidity of 50±5 percent, constituted the test insects.
The test compounds were formulated by diluting the stock suspension with water to give a suspension containing 500 parts of test compound per million parts of final formulation. Potted Tendergreen bean plants of standard height and age were placed on a revolving turntable and sprayed with 100-110 milliliters of test compound formulation by use of a DeVilbiss spray gun set at 10 psig air pressure. This application, which lasted 25 seconds, was sufficient to wet plants to run-off. As a control, 100-110 milliliters of a water-acetone-emulsifier solution containing no test compound were also sprayed on infested plants. When dry, the paired leaves were separated and each one was placed in a 9 centimeter Petri dish lined with moistened filter paper. Five randomly selected larvae were introduced into each dish and the dishes were closed. The closed dishes were labeled and held at 80°-85° F. for three days. Although the larvae could easily consume the whole leaf within twenty-four hours, no more food was added. Larvae which were unable to move the length of the body, even upon stimulation by prodding, were considered dead. Percent mortality was recorded for various concentration levels.

[4] = tested on: house flies (Musca domestica, L.); test: Fly Bait Test; set-up: key: A: excellent control; B: partial control; C: no control; conditions: 500 parts per million bait in sugar solution; twenty four hours
Protocol: as §1
Four to six day old adult house flies (Musca domestica, L.) reared according to the specifications of the Chemical Specialties Manufacturing Association (Blue Book, McNair-Dorland Co., N.Y. 1954; pages 243-244, 261) under controlled conditions of 80°±5° F. and 50±5 percent relative humidity, were the test insects. The flies were immobilized by anesthetizing with carbon dioxide and twenty five immobilized individuals, males and females, were transferred to a cage consisting of a standard food strainer about five inches in diameter which was inverted over a wrapping-paper-covered surface. The test compounds were formulated by diluting the stock suspension with a 10 percent (by weight) sugar solution to give a suspension containing 500 parts of test compound per million parts of final formulation, by weight. Ten milliliters of the test formulation were added to a souffle cup containing a one-inch square of an absorbent cotton pad. This bait cup was introduced and centered on the blotting paper under the food strainer prior to admitting the anesthetized flies. The caged flies were allowed to feed on the bait for twenty four hours, at a temperature of 80°±5° F. and the relative humidity of 50±5 percent.

[5] = tested on: Mexican bean beetle (Epilachna varivestis, Muls.); test: Mexican Bean Beetle Leaf Spray Test; set-up: key: A: excellent control; B: partial control; C: no control; conditions: 500 parts per million leaf spray; fourth instar larvae; three days
Protocol: as §1
Fourth instar larvae of the Mexican bean beetle (Epilachna varivestis, Muls.), reared on Tendergreen bean plants at a temperature of 80°±5° F. and 50±5 percent relative humidity, were the test insects.
The test compounds were formulated by diluting the stock suspension with water to give a suspension containing 500 parts of test compound per million parts of final formulation. Potted Tendergreen bean plants of standard height and age were placed on a revolving turntable and sprayed with 100-110 milliliters of test compound formulation by use of a DeVilbiss spray gun set at 10 psig air pressure. This application, which lasted 25 seconds, was sufficient to wet plants to run-off. As a control, 100-110 milliliters of a water-acetone-emulsifier solution containing no test compound were also sprayed on infested plants. When dry, the paired leaves were separated and each was placed in a 9 centimeter Petri dish lined with moistened filter paper. Five randomly selected larvae were introduced into each dish, and the dishes were closed. The closed dishes were labeled and held at a temperature of 80°±5° F. for three days. Although the larvae could easily consume the leaf within 24 to 48 hours, no more food was added. Larvae which were unable to move the length of the body, even upon stimulation, were considered dead.

[6] = tested on: root-knot nematode (Meloidogyne incognita var. acrita); test: Nematode Test; set-up: key: 1: severe galling; equal to untreated control; 2: moderate galling; 3: light galling; 4: very light galling; 5: no galling; conditions: 10 ml of 500 parts per million formulation per jar of soil; cucumber indicator crop, approximately three weeks
Protocol: as §1
Infective migratory larvae of the root-knot nematode, (Meloidogyne incognita var. acrita) were reared in the greenhouse on roots of Rutgers variety tomato plant. Infected tomato plants were removed from the culture and the roots were chopped very finely. A small amount of inoculum from the roots was added to pint Mason jars containing approximately 180 cc of soil. The jars containing the inoculum and soil were capped and incubated for one week at room temperature. During this period eggs of the nematode hatched and the larvae forms migrated into the soil.
The test compounds were formulated by diluting the stock suspension with water to give a suspension containing 500 parts of test compound per million parts of final formulation. 10 milliliters of the test formulation was added to each of two jars for each dosage treated. As a control 10 milliliters of a water-acetone-emulsifier solution containing no test compound was also added to jars containing nematode larvae. The jars were capped and the contents thoroughly mixed on a kale mill for five minutes. The jars remained capped at room temperature for a period of 48 hours and the contents were then transferred to 3 inch pots. Subsequently, the pots were seeded to cucumber as an indicator crop and placed in the green house where they were cared for in the normal fashion for growing potted cucumber for approximately three weeks. These cucumber plants were then removed from the pots, the soil washed from the roots and the amount of galling visually rated.

Row | SMILES | Mite, pesticidal activity rating [1] | Aphid, pesticidal activity rating [2] | S. Armyworm, pesticidal activity rating [3] | H. Fly, pesticidal activity rating [4] | M. Bean Beetle, pesticidal activity rating [5] | Nematodes, nematocidal toxicity rating (galling) [6]
1 | Cc1ccc(SSN(C)C(=O)ON=C2SCOC2C)cc1 (stereo not drawn) | A | A | A | A | A | 1
2 | CC1OCSC1=NOC(=O)N(C)SSc1ccccc1 (stereo not drawn) | A | A | A | A | A | 2
